Results: ChEMBL document CHEMBL3044658, “Synthesis and analgesic activity of new 1,3,4-oxadiazoles and 1,2,4-triazoles” (2011)

How the values were obtained:
Type in all cases: functional
Mus musculus [1] = assay: Analgesic activity in Mus musculus NMRI (mouse) assessed as inhibition of late phase of formalin-induced nociception at 30 umol/kg, ip administered 30 min before formalin injection relative to control
Mus musculus [2] = assay: Analgesic activity in Mus musculus NMRI (mouse) assessed as inhibition of early phase of formalin-induced nociception at 30 umol/kg, ip administered 30 min before formalin injection relative to control
Mus musculus [3] = assay: Analgesic activity in Mus musculus NMRI (mouse) assessed as inhibition of late phase of formalin-induced nociception at 30 umol/kg, ip administered 30 min before formalin injection relative to mefenamic acid

Nc1nnc(-c2ccccc2Sc2ccccc2)o1
inhibition in vivo at 30 µmol/kg (Mus musculus [1]): 63.7% | inhibition in vivo at 30 µmol/kg (Mus musculus [2]): 16.6% | Ratio (Mus musculus [3]): 0.85

O=S(=O)(c1ccccc1)c1ccccc1-c1n[nH]c(=S)o1
inhibition in vivo at 30 µmol/kg (Mus musculus [1]): 58% | inhibition in vivo at 30 µmol/kg (Mus musculus [2]): 41.9% | Ratio (Mus musculus [3]): 0.77

Nc1nnc(-c2ccccc2Sc2ccccc2Cl)o1
inhibition in vivo at 30 µmol/kg (Mus musculus [1]): 67.1% | inhibition in vivo at 30 µmol/kg (Mus musculus [2]): 26.7% | Ratio (Mus musculus [3]): 0.89

O=S(=O)(c1ccccc1)c1ccccc1-c1n[nH]c(=S)[nH]1
inhibition in vivo at 30 µmol/kg (Mus musculus [1]): 64.9% | inhibition in vivo at 30 µmol/kg (Mus musculus [2]): 31.2% | Ratio (Mus musculus [3]): 0.87

Cc1cccc(Nc2ccccc2C(=O)O)c1C [MEFENAMIC ACID]
inhibition in vivo at 30 µmol/kg (Mus musculus [1]): 74.9% | inhibition in vivo at 30 µmol/kg (Mus musculus [2]): 24.1%

Nc1nnc(-c2ccccc2[S+]([O-])c2ccccc2)o1 (stereo not given)
inhibition in vivo at 30 µmol/kg (Mus musculus [1]): 79.9% | inhibition in vivo at 30 µmol/kg (Mus musculus [2]): 29.4% | Ratio (Mus musculus [3]): 1.07

S=c1[nH]nc(-c2ccccc2Sc2ccccc2Cl)o1
inhibition in vivo at 30 µmol/kg (Mus musculus [1]): 80.5% | inhibition in vivo at 30 µmol/kg (Mus musculus [2]): 16.8% | Ratio (Mus musculus [3]): 1.06

Nc1nnc(-c2ccccc2S(=O)(=O)c2ccccc2)o1
inhibition in vivo at 30 µmol/kg (Mus musculus [1]): 68.3% | inhibition in vivo at 30 µmol/kg (Mus musculus [2]): 40.5% | Ratio (Mus musculus [3]): 0.91

[O-][S+](c1ccccc1)c1ccccc1-c1n[nH]c(=S)o1 (stereo not given)
inhibition in vivo at 30 µmol/kg (Mus musculus [1]): 86.1% | inhibition in vivo at 30 µmol/kg (Mus musculus [2]): 40.9% | Ratio (Mus musculus [3]): 1.15

S=c1[nH]nc(-c2ccccc2Sc2ccccc2)o1
inhibition in vivo at 30 µmol/kg (Mus musculus [1]): 71.3% | inhibition in vivo at 30 µmol/kg (Mus musculus [2]): 13.1% | Ratio (Mus musculus [3]): 0.95

[O-][S+](c1ccccc1)c1ccccc1-c1n[nH]c(=S)[nH]1 (stereo not given)
inhibition in vivo at 30 µmol/kg (Mus musculus [1]): 63.3% | inhibition in vivo at 30 µmol/kg (Mus musculus [2]): 31.7% | Ratio (Mus musculus [3]): 0.85

S=c1[nH]nc(-c2ccccc2Sc2ccccc2)[nH]1
inhibition in vivo at 30 µmol/kg (Mus musculus [1]): 79.6% | inhibition in vivo at 30 µmol/kg (Mus musculus [2]): 49.4% | Ratio (Mus musculus [3]): 1.06
